Data on one compound can be found in patent US20230138400A1, “METHODS AND PHARMACEUTICAL COMPOSITIONS FOR REPROGRAMING IMMUNE ENVIRONMENT IN A SUBJECT IN NEED THEREOF” (INSERM (INSTITUT NATIONAL DE LA SANTE ET DE LA RECHERCHE …, priority 2016, published 2023).

In data set [1] the test system is naive CD8 T cells isolated from the spleen of the C57BL/6 mice. The data set can be described thus: Activation of naive CD8 T cells (anti-CD3, anti-CD28, IL2) in presence of DDA, flow cytometry. The format is cell-based, mouse. The method, then:
FIGS. 1A-E. Sorted naive CD4 T cells were isolated from the spleen of C57BL/6 mice and activated in the indicated Th1, Th2, Treg, or Th17 polarizing conditions as described in the “Materials and methods” section”. These cells were cultured in the presence of increasing concentrations of DDA. After 96 hours, the percentage of (A) Th1: CD4+Tbet+IFNg+, (B) Th2: CD4+GATA3+[…], (C) Treg: CD4+Foxp3+IL10+ and (D) Th17: CD4+RORgt+[…], cells was measured by flow cytometry. (E) Sorted naive CD8 T cells were isolated from the spleen of the C57BL/6 mice and activated with anti-CD3, anti-CD28 and recombinant IL2. After 96 hours, the percentage of cytotoxic T CD8+GranzymB+IFNg+ cells was measured by flow cytometry.
FIGS. 2A-E. Sorted naive CD4 T cells isolated from the spleen of C57BL/6 mice were activated in Th1, Th2, Treg, or Th17 polarizing conditions as indicated in the “Materials and methods” section”. After 96 h, increasing concentrations of DDA was added on polarized CD4 T cells for 24 h. Then the percentage of (A) CD4+Tbet+IFNg+, (B) CD4+GATA3+[…], (C) CD4+Foxp3+IL10+ and (D) CD4+RORgt+[…] cells was measured by flow cytometry. (E) Sorted naïve CD8 T cells were isolated from the spleen of the C57BL/6 mice and activated with anti-CD3, anti-CD28 and recombinant IL2. After 96 h, increasing concentrations of DDA was added on activated CD8 T cells for 24 h. Then the percentage of cytotoxic T CD8+GranzymB+IFNg+ cells was measured by flow cytometry.
Cells isolation. Single-cells leukocyte suspensions were obtained from spleens of C57BL/6 mice. Naive CD4 or CD8 T cells are isolated by depletion of memory CD4 or CD8 T cells and non-CD4 or non-CD8 T cells according the manufacturer's protocol from Miltenyi kit (Miltenyi biotec). […]
Immune cell culture. […] After 5 days of culture, cells were collected and analyzed by flow cytometry. To investigate the impact of DDA on polarization of CD4 or CD8 naive T cells, DDA or the solvent vehicle was added at the beginning of culture at Day 0 or at Day 4 and cells was analyzed at day 5 by flow cytometry.
On the technique in general: In flow cytometry, cells or beads pass a laser one at a time.

The subject of data set [2] is E0771 sh control or E0771 sh LXR tumors. The data set can be described thus: Tumor growth and survival, E0771 sh control or E0771 sh LXR tumors, DDA treatment. The format is in vivo, mouse. On the procedure: FIGS. 13A-B. Tumor growth analysis (A) Exponentially growing E0771 sh control or E0771 sh LXR cells were collected, washed twice in PBS and resuspended in PBS (300,000 cells in 100 μl PBS). […] mice were grafted subcutaneously with 300 000 E0771 sh control or E0771 sh LXR tumor cells. […] At day 15 of treatment with DDA or the solvent vehicle, the tumors were removed and the immune cells infiltrated into the tumors were analyzed by flow cytometry (see FIG. 14).
FIGS. 16A-C. The control of tumor growth and the increase in animal survival upon DDA treatment are dependent on the LXRβ expressed in tumor cells. […] The animals were monitored over time for (A) tumor growth and (B) animal survival. (C) Tumor weights were measured at the end of the experiment.

The test system of the next data set is SKMEL-28 cells. The data set can be described thus: Composition of exosomes from SKMEL-28 cells (shCTRL or shLXRbeta) treated with DDA. The format is cell-based, human. On the procedure:
Exosome characterization. By flow cytometry: (tetraspanin analysis), exosomes (10 μg) were bound onto 10 μl of latex beads (Interfacial Dynamics/Invitrogen) in 200 μl PBS for 1 hour at 25° C. with gentle periodical shaking. Free sites on latex beads were saturated with 100 μl vesicle-free FBS for 30 min at 25° C. Beads with bound exosomes were centrifuged for 5 min at 5000 rpm, washed in 200 μl PBS, and diluted in 100 μl FACS buffer. Specific primary antibody or control isotype (1:50) were added and incubated at room temperature for 30 min. After centrifugation and washing, secondary antibody (1:100) was added and incubated for 30 min at room temperature. Beads with bound antibody-labelled exosomes were diluted in 1 ml FACS buffer and analyzed by flow cytometry (FACScalibur, Becton-Dickinson). By western-blot analysis: 5-20 μg exosomes were directly diluted in sample buffer and denaturated by heating at 60° C. for 10 min. Equal amounts of proteins were deposited in each well and proteins were resolved in SDS-PAGE and transferred onto PVDF membranes, saturated with 5% w/v non-fat milk in TBS-Tween 0.1%. […] Revelation from immunoblotting was performed by enhanced chemiluminescence and analysed by ChemiDoc imager (BioRad) or by Pxi imager (Ozyme). By sucrose gradient: the density of exosomes was measured through a sucrose gradient. […]

[3] abbreviates: E0771 expressing LXRβ, 0.37 μg/kg DDA IP every two days (FIG. 16).

The structures appear in SMILES notation.

In the case of `CC(C)CCCC(C)[C@H]1CCC2C3C[C@@H](NCCc4cnc[nH]4)[C@@]4(O)C[C@@H](O)CC[C@]4(C)C3CC[C@@]21C` (stereo partly drawn) [DDA, 5a-hydroxy-6b-[2-(1H-imidazol-4-yl)ethylamino]cholestan-3b-ol], the “concentration from which differentiation of naïve CD8 T cells into functional cytotoxic CD8 T cells is increased” value in data set [1] (DDA added at day 0, 96 h, CD8+GranzymB+IFNg+) is ≥ 10 nM; in data set [1] (DDA added at day 4 for 24 h), ≥ 1 nM. Besides, the “CD8 T cells phenotype” value in data set [1] (data not shown) is “no significant effect”. Also, the animal survival entry in data set [2] (setting [3]) was “increases animal survival”. The tumor growth result in data set [2] (setting [3]) was “inhibits tumor growth”. Moreover, in data set [2] (E0771 sh LXR, 0.37 μg/kg DDA every 2 days (FIG. 13)), the “effect on growth of tumors” value was “abolished”. The growth of tumors entry in data set [2] (E0771 sh control, 0.37 μg/kg DDA every 2 days (FIG. 13)) is “significantly controls the growth”. The “exosome content of rab27a and b, HSP70, Melan A, tyrosinase, TRP2, calreticuline” value was “enriched” with SKMEL-28 cells (exosomes from SKMEL-28-shCTRL cells) and “not enriched” with SKMEL-28 cells (exosomes from SKMEL-28-shLXRbeta cells).
